US11155664B2, “Polymeric nanoparticles useful in theranostics” (THE GOVERNING COUNCIL OF THE UNIVERSITY OF TORONTO, priority 2012, dated 2021)
≈ marks a conversion by molar mass, not a printed value.

What was measured:
[1] = mouse, in vivo
Text: The data are presented as mean±standard deviation of three independent runs.
T1-weighted images provide only a qualitative reflection of contrast agent distribution, primarily because of the sensitivity profiles of the RF transmit and receiver coils. In contrast, R1 maps provide a better quantitative measure of the contrast agent distribution in the whole body.
The temporal behaviour of the whole-body distribution of contrast agents was quantified by constructing R1 maps at multiple time-points following injection without moving the animal (FIG. 27A). Organ-specific concentration profiles were then quantified directly from R1 measurements in manually segmented regions-of-interest according to Equation 1 (described previously), (FIG. 27B,C).
The R1 of the left ventricular (LV) blood provides a useful indicator of vascular contrast agent enhancement in whole-body images.

MDA-MB435/LCC6/WT cells = experiment: MTT cell viability, wild-type cells; type: cell-based, human
Experimental: Cells with no treatment and incubated with blank nanoparticles were used as control for free drug and drug loaded nanoparticle respectively. Cell viability is expressed as the percent of control for each treatment group. Data points represent the mean±standard deviation of the number of trials indicated for each experiment.
The cells were treated with increasing concentrations of doxorubicin or doxorubicin-loaded nanoparticles for 24 hrs and 48 hrs, and the cell viability was determined using MTT assay.

SMILES	LV blood R1 [1] [s⁻¹]	LV blood ΔR1 [1] [s⁻¹]	IC50 (MDA-MB435/LCC6/WT cells; 24 hrs treatment) [µg/mL]	IC50 (MDA-MB435/LCC6/WT cells; 48 hrs treatment) [µg/mL]
CNC(=O)CN(CCN(CCN(CC(=O)[O-])CC(=O)NC)CC(=O)[O-])CC(=O)[O-].[Gd+3] [Omniscan®, diethylenetriamine pentaacetic acid bismethylamide gadolinium]	~0.7	~0.1	–	–
COc1cccc2c1C(=O)c1c(O)c3c(c(O)c1C2=O)C[C@@](O)(C(=O)CO)C[C@@H]3O[C@H]1C[C@H](N)[C@H](O)[C@H](C)O1 [free Dox, doxorubicin]	–	–	0.34 (≈ 0.626 µM)	0.07 (≈ 0.129 µM)
